Where a name gives a salt, the structure may show the parent alone.
System: plaque-like psoriasis
Test: Treatment of a subject with moderately severe plaque-like psoriasis (case report, Example 1)
Type: in vivo, human
Details: person, plaque-like psoriasis of legs; 60 mg twice daily for 12 consecutive days
Description: The subject presented with moderately severe plaque-like psoriasis of their legs. The subject had suffered from psoriasis for most of their life, and the condition had worsened immediately prior to the present study. […] The subject was treated with 60 mg of tomoxetine hydrochloride, twice daily for 12 consecutive days.

CNCC[C@@H](Oc1ccccc1C)c1ccccc1 [tomoxetine hydrochloride, (R)-(−)-N-methyl-3-(2-methylphenoxy)-3-phenylpropylamine]
Clinical outcome of psoriasis lesions at final assessment: significant improvement

Reference: patent US6683114B2, “Treatment of psoriasis” (Eli Lilly and Company, priority 2000, dated 2004)
